This is an account of results in PMC5041982, “Small-molecule inhibition of STAT3 in radioresistant head and neck squamous cell carcinoma” (Oncotarget, 2016).

Molecules are shown by their SMILES.

As usually defined, the IC50 is the concentration needed to halve the response being measured.

One data set deals with T1, pSTAT3 (Tyr-705) (Homo sapiens, UniProt P40763).
T1 construct: endogenous in cells; host or cells: Kasumi-1
As to the kind of experiment: Phosphoflow, G-CSF-induced STAT3 phosphorylation in Kasumi-1 cells. The settings on record: Kasumi-1, G-CSF 10 ng/ml 15 min; mean, n ≥ 2; read-out: Ligand Induced Phosphorylation (Phosphoflow) pSTAT3 (GCSF) IC50. The data set is classed as cell-based. The protocol: (§1) The equilibrium binding levels obtained ± compound were normalized (resonance obtained in the presence of compound ÷ the resonance obtained in the absence of compound × 100) and plotted against Log [nM] […] B. Inhibition of ligand-stimulated STAT phosphorylation, measured by phosphoflow. Serum-starved (1 hour) Kasumi-1 cells, pre-incubated with compound/DMSO (1 hour), were treated with G-CSF (10 ng/ml, 15 min, left two panels) or IFN-γ (10ng/ml, 15 min, right panel). Cells were permeabilized and stained with Alexa647-pSTAT3, and PE-pSTAT1 antibodies and analyzed on BD LSR2. FCS files were uploaded to Cytobank for pSTAT3 and pSTAT1 quantitation. Histograms depicting pSTAT3 and pSTAT1 levels are shown. C. Mean fluorescence (pSTAT3/1) levels were plotted as function the Log [M] compound, and IC50 calculated using GraphPad. […] D. Inhibition of ligand-stimulated STAT phosphorylation, measured by Luminex. Serum-starved (1 hour) Kasumi-1 cells, pre-incubated with compound/DMSO (0/0.1/0.3/1/3/10/100 μM, 1 hour), were treated with G-CSF (10 ng/ml, 15′). Total protein extracts of cells were assayed for pSTAT3, pSTAT1, and GAPDH levels by Luminex. GAPDH-normalized pSTAT3 or pSTAT1 values were divided by this ratio for untreated cells and expressed in percentage. These values were plotted as a function of Log [M] compound, and IC50 values calculated using GraphPad.
(§2) Phosphoflow analysis was done as described in Xu et al. Briefly, Kasumi-1 cells, were serum-starved, pre-treated with compound or DMSO (1 hour, RT) and then stimulated with 20 μl of GCSF (10 ng/ml) for 15 minutes at 37°C. The cells were then permeabilized and stained with Alexa647-pSTAT3, Alexa488-pSTAT5 and PE-pSTAT1 antibodies and analyzed using the BD LSR2. FCS files were exported and uploaded to Cytobank for determination of phosphoproteins as earlier. Gating was done on live, single cells and then gates selected for positive ligand-activated pSTAT3 and pSTAT1. IC50 values were calculated using the GraphPad Prism.

Another data set concerns the target STAT3 (Homo sapiens, UniProt P40763). As to the kind of experiment: STAT3/pY-peptide binding surface plasmon resonance (SPR) assay. As to conditions: for Inhibition of STAT3 binding to pY-peptide compared with C188: SPR; for IC50: STAT3 200 nM, EGFR pY1068 dodecapeptide, mean, n ≥ 2, read-out: pY-Peptide Binding (SPR) IC50. The protocol: The equilibrium binding levels obtained ± compound were normalized (resonance obtained in the presence of compound ÷ the resonance obtained in the absence of compound × 100) and plotted against Log [nM] […] B. Inhibition of ligand-stimulated STAT phosphorylation, measured by phosphoflow. Serum-starved (1 hour) Kasumi-1 cells, pre-incubated with compound/DMSO (1 hour), were treated with G-CSF (10 ng/ml, 15 min, left two panels) or IFN-γ (10ng/ml, 15 min, right panel). Cells were permeabilized and stained with Alexa647-pSTAT3, and PE-pSTAT1 antibodies and analyzed on BD LSR2. FCS files were uploaded to Cytobank for pSTAT3 and pSTAT1 quantitation. Histograms depicting pSTAT3 and pSTAT1 levels are shown. C. Mean fluorescence (pSTAT3/1) levels were plotted as function the Log [M] compound, and IC50 calculated using GraphPad. […] D. Inhibition of ligand-stimulated STAT phosphorylation, measured by Luminex. Serum-starved (1 hour) Kasumi-1 cells, pre-incubated with compound/DMSO (0/0.1/0.3/1/3/10/100 μM, 1 hour), were treated with G-CSF (10 ng/ml, 15′). Total protein extracts of cells were assayed for pSTAT3, pSTAT1, and GAPDH levels by Luminex. GAPDH-normalized pSTAT3 or pSTAT1 values were divided by this ratio for untreated cells and expressed in percentage. These values were plotted as a function of Log [M] compound, and IC50 values calculated using GraphPad. […]
3-D pharmacophore sorting used to evaluate the effect of each compound on STAT3 binding. Responses were normalized by dividing the […]
fingerprint screening were converted into 3-D structures compounds at 2 min and multiplying by 100. IC values […]
for analysis as described below. were determined by plotting % maximum response as a 3-D pharmacophore generation function of log concentration of compound and fitting the Each molecular chemical feature, including experimental points to a competitive binding model using hydrogen bond donor, hydrogen bond acceptor, positive a four parameter logistic equation: R = Rhigh − (Rhigh − R low)/ (1 + conc/A1)^A2, where R = percent response at and negative ionizable group, and hydrophobic region, inhibitor concentration, R = percent response with no was generated using the LigandScout application compound, R= percent response at highest compound high framework and projected into 3-D space. concentration, A2 = fitting parameter (slope) and A1 = low Feature-pairing IC50 (BIAevaluation Software version 4.1). The inhibition Each chemical feature was converted into distance constant (Ki) was derived from the Cheng-Prusoff bin and the complete set of distance bins used to construct equation Ki=IC50/(1+[C]/Kd) as used by Halling et al a cost matrix. The most favorable pairing based on cost where C stands for STAT3 concentration used in the SPR matrix was identified. assay and Kd denotes the dissociation constant for STAT3 3-D pharmacophore transformation binding to its phosphorylated EGFR ligand in the SPR […]
STAT3/pY-peptide binding assay and total protein extracted from cell pellets. […]
STAT3 binding assays were performed at 25 °C (Millipore, Danvers, MA) coupled to antibody against
A general note: SPR reads the build-up and loss of mass on a sensor chip optically.

In a further data set the target is T2, pSTAT1 (Tyr-701) (Homo sapiens, UniProt P42224).
T2 construct: endogenous in cells; host or cells: Kasumi-1
T2 sequence (P42224 1-750): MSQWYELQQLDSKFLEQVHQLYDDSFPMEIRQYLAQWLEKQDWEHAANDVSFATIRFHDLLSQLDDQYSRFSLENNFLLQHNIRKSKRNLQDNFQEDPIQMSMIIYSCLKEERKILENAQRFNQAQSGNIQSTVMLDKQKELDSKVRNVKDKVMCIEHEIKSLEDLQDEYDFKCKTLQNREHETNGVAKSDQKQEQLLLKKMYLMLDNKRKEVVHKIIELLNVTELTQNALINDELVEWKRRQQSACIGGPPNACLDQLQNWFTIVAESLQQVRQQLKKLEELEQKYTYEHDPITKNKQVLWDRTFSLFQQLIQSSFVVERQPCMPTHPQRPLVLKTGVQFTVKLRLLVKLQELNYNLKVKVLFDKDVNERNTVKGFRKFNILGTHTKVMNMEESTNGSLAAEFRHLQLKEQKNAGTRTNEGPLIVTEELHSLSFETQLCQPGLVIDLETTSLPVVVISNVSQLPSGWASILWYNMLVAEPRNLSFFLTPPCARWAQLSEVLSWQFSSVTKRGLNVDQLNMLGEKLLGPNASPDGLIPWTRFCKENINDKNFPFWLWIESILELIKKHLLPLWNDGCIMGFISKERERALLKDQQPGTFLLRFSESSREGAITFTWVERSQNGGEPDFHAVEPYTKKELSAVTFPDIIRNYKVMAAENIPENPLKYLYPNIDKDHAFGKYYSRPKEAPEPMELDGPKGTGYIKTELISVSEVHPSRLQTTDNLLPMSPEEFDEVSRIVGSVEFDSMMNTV
Put plainly: Phosphoflow, IFN-γ-induced pSTAT1 in Kasumi-1 cells. The settings on record: Kasumi-1, IFN-γ 10 ng/ml 15 min; mean, n ≥ 2; read-out: Ligand Induced Phosphorylation (Phosphoflow) pSTAT1 (IFN-γ) IC50. Format: cell-based. The protocol:
as §1, §2

The subject of another data set is pSTAT5. As to the kind of experiment: Phosphoflow, G-CSF-induced pSTAT5 in Kasumi-1 cells. Format: cell-based. The settings on record: mean, n ≥ 2, read-out: Ligand Induced Phosphorylation (Phosphoflow) pSTAT5 (G-CSF) IC50. The protocol: as §2
The test system of data set [1] is normal murine bone marrow colony formation. Put plainly: Normal murine bone marrow colony formation. Format: cell-based. As to conditions: studies not shown (Tweardy et al 2010, unpublished).

T1 sequence (P40763 whole entry): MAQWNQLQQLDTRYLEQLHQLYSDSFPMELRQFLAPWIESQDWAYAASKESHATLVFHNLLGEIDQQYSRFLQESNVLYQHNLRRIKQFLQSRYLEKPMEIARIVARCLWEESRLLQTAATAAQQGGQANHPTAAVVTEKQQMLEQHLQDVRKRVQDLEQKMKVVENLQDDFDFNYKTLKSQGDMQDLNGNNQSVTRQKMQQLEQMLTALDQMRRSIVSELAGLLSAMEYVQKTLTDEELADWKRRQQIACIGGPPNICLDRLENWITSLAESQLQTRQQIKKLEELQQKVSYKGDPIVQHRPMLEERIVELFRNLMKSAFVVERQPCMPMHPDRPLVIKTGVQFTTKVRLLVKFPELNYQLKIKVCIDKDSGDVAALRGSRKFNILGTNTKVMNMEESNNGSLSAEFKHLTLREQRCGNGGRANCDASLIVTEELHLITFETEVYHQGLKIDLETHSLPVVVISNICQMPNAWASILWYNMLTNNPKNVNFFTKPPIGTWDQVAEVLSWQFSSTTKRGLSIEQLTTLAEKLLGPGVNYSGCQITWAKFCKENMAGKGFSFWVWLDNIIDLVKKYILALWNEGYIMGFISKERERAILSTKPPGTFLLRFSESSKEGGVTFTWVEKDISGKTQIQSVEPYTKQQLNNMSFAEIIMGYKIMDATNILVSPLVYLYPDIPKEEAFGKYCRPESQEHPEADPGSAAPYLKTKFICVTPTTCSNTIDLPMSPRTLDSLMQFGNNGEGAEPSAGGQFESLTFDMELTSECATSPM
STAT3, sequence (P40763 whole entry, species assumed): as the sequence (P40763 whole entry) above

Take `Cc1cc(C)c(C)c(S(=O)(=O)Nc2cc(SCC(=O)O)c(O)c3ccccc23)c1C` [Compound C188-14]: the IC50 on pSTAT3 (Tyr-705) was determined as 40.3 ± 50.8 µM; on STAT3, 8.7 ± 9.1 µM; on pSTAT1 (Tyr-701), 57 µM; in the data set with pSTAT5, 10 µM. Further, the “Inhibition of STAT3 binding to pY-peptide compared with C188” value (shortened to “Inhibition … compared with C188”) on STAT3 was “activity similar to C188”.
`O=S(=O)(Nc1cc(Sc2nc[nH]n2)c(O)c2ccccc12)c1ccc(Br)cc1` [Compound C188-15]: the IC50 was 3.3 ± 0.2 µM on pSTAT3 (Tyr-705), 1.5 ± 0.7 µM at STAT3 and 12 ± 1.4 µM in the data set on pSTAT5. The “Inhibition … compared with C188” value at STAT3 is given as “improved inhibition”. Also, the “Inhibition of normal murine bone marrow colony formation” value in data set [1] was “inhibited”.
Turning to `Cc1cc(C)c(S(=O)(=O)Nc2cc(Sc3nc[nH]n3)c(O)c3ccccc23)cc1C` [Compound C188-18], the IC50 at pSTAT3 (Tyr-705) is above 300 µM; at STAT3, 3.5 ± 0.7 µM; at pSTAT1 (Tyr-701), above 300 µM; in the data set with pSTAT5, above 300 µM. In addition, the “Inhibition … compared with C188” value at STAT3 is recorded as “improved inhibition”.
As to `COc1ccc(OC)c(S(=O)(=O)Nc2cc(Sc3ccccc3)c(O)c3ccccc23)c1` [Compound C188-19], the IC50 at pSTAT3 (Tyr-705) was above 300 µM; at STAT3 it was 5.5 ± 4.9 µM; at pSTAT1 (Tyr-701), above 300 µM; in the data set on pSTAT5, above 300 µM. Besides, on STAT3, the “Inhibition … compared with C188” value is listed as “improved inhibition”.
For the molecule `CCOC(=O)c1c(C)oc2c1cc(NS(=O)(=O)c1cccc3cccnc13)c1ccccc12` [Compound C188-20], the IC50 is above 300 µM at pSTAT3 (Tyr-705), 27 ± 25.5 µM on STAT3, 9 µM on pSTAT1 (Tyr-701) and above 300 µM with pSTAT5.
On to `CCc1ccc(S(=O)(=O)Nc2cc3c(C(=O)OCCOC)c(C)oc3c3ccccc23)cc1` [Compound C188-22], for which the IC50 is above 300 µM on pSTAT3 (Tyr-705), 73 ± 17 µM on STAT3, above 300 µM on pSTAT1 (Tyr-701) and above 300 µM in the data set on pSTAT5.
`CC(=O)Nc1ccc(S(=O)(=O)Nc2cccc3ccccc23)cc1` [Compound C188-23]: the IC50 at pSTAT3 (Tyr-705), at STAT3, on pSTAT1 (Tyr-701) and with pSTAT5 was above 300 µM throughout.
`O=S(=O)(Nc1cccc2ccccc12)c1ccc(Cl)cc1` [Compound C188-24]: the IC50 at pSTAT3 (Tyr-705), on STAT3, at pSTAT1 (Tyr-701) and in the data set with pSTAT5 was above 300 µM each time.
Consider `CC1(C)CC(=O)c2c(oc3c2cc(NS(=O)(=O)c2ccc(Br)cc2)c2ccccc23)C1` [Compound C188-25], for which the IC50 at pSTAT3 (Tyr-705) is above 300 µM; at STAT3, 45 ± 8.5 µM; at pSTAT1 (Tyr-701), 17 µM; in the data set with pSTAT5, above 300 µM.
With `Cc1oc2c(cc(NS(=O)(=O)c3ccc(Cl)cc3)c3ccccc32)c1C(=O)OCc1ccccc1` [Compound C188-30], the IC50 on pSTAT3 (Tyr-705) was above 300 µM; on STAT3, 70.5 ± 70 µM; on pSTAT1 (Tyr-701), above 300 µM; with pSTAT5 it was above 300 µM.
For `Cc1cc(C)c(S(=O)(=O)Nc2cc(C(C(=O)OC(C)C)C(=O)C(F)(F)F)c(O)c3ccccc23)cc1C` (stereo not drawn) [Compound C188-31], the IC50 is 13 µM at pSTAT3 (Tyr-705), 42 ± 7.1 µM on STAT3, 47 µM on pSTAT1 (Tyr-701) and above 300 µM with pSTAT5.
Regarding `Cc1ccc(S(=O)(=O)Nc2cc3sc(=O)oc3c3ccccc23)c(C)c1` [Compound C188-32], the IC50 at pSTAT3 (Tyr-705) is 7.5 ± 3.6 µM; on STAT3 it was 48 ± 19.8 µM; at pSTAT1 (Tyr-701), 3 µM; in the data set with pSTAT5, above 300 µM.
With `CC(C)(C)c1ccc(S(=O)(=O)Nc2cc3sc(=O)oc3c3ccccc23)cc1` [Compound C188-33], the IC50 on pSTAT3 (Tyr-705) stood at 7.9 ± 5.8 µM; on STAT3, 20 ± 4.2 µM; at pSTAT1 (Tyr-701), 10 µM; with pSTAT5 it was 6 µM.
Taken in the same sequence, the figures for `Cc1cc(S(=O)(=O)Nc2cc3c4c(oc3c3ccccc23)CCCC4=O)ccc1Cl` [Compound C188-34] were above 300 µM, 13.5 ± 3.5 µM, above 300 µM and above 300 µM.
Taken in the same sequence, the figures for `CC(C)(C)c1ccc(S(=O)(=O)Nc2cc3c4c(oc3c3ccccc23)CCCC4=O)cc1` [Compound C188-36] were above 300 µM, 31.5 ± 7.8 µM, above 300 µM and above 300 µM.
In the same order, the values of `CC(C)c1ccc(S(=O)(=O)Nc2cc3c4c(oc3c3ccccc23)CCCC4)cc1` [Compound C188-37] are above 300 µM, 24.5 ± 6.4 µM, above 300 µM and above 300 µM.
With `O=S(=O)(Nc1ccc(O)c2ccccc12)c1cccc2cccnc12` [Compound C188-39], the IC50 on pSTAT3 (Tyr-705), at STAT3, at pSTAT1 (Tyr-701) and with pSTAT5 was above 300 µM each time.
